Experimental data published in ChEMBL document CHEMBL4732221, “Design, synthesis and bioactivity evaluation of novel pyrazole linked phenylthiazole derivatives in context of antibacterial activity” (Bioorg Med Chem Lett, 2021).
≈ marks a conversion by molar mass, not a printed value. Calls of active or inactive are those of the source. The calls are words filed in the database; no cut-off is given here.

How the values were obtained:
[1] = (§1) Haemolytic activity against human whole blood after 70 mins by monochromator plate reader; type: ADME, tissue-based; conditions: whole blood
Blood = assay: as §1; type: ADME, tissue-based; conditions: blood, 1.167 h
Acinetobacter baumannii [2] = assay: Antibacterial activity against Acinetobacter baumannii ATCC 19606 assessed as growth inhibition after 18 hrs by monochromator plate assay; type: functional
Pseudomonas aeruginosa [3] = assay: Antibacterial activity against Pseudomonas aeruginosa ATCC 27853 assessed as growth inhibition after 18 hrs by monochromator plate assay; type: functional
Klebsiella pneumoniae [4] = assay: Antibacterial activity against Klebsiella pneumoniae ATCC 700603 assessed as growth inhibition after 18 hrs by monochromator plate assay; type: functional
Escherichia coli [5] = assay: Antibacterial activity against Escherichia coli ATCC 25922 assessed as growth inhibition after 18 hrs by monochromator plate assay; type: functional
Staphylococcus aureus [6] = assay: Antibacterial activity against methicillin-resistant Staphylococcus aureus ATCC 43300 assessed as growth inhibition after 18 hrs by monochromator plate assay; type: functional
Cryptococcus neoformans [7] = assay: Antifungal activity against Cryptococcus neoformans var. grubii ATCC 208821 assessed as growth inhibition at 32 ug/ml after 36 hrs by monochromator plate assay relative to control; type: functional; conditions: dose 32.0 µg/ml
Candida albicans [8] = assay: Antifungal activity against Candida albicans ATCC 90028 assessed as growth inhibition at 32 ug/ml after 36 hrs by monochromator plate assay relative to control; type: functional
Acinetobacter baumannii [9] = assay: Antibacterial activity against Acinetobacter baumannii ATCC 19606 assessed as growth inhibition at 32 ug/ml after 18 hrs by monochromator plate assay relative to control; type: functional; conditions: for inhibition: dose 32.0 µg/ml
Pseudomonas aeruginosa [10] = assay: Antibacterial activity against Pseudomonas aeruginosa ATCC 27853 assessed as growth inhibition at 32 ug/ml after 18 hrs by monochromator plate assay relative to control; type: functional; conditions: for inhibition: dose 32.0 µg/ml
Klebsiella pneumoniae [11] = assay: Antibacterial activity against Klebsiella pneumoniae ATCC 700603 assessed as growth inhibition at 32 ug/ml after 18 hrs by microplate reader assay relative to control; type: functional; conditions: for inhibition: dose 32.0 µg/ml
Escherichia coli [12] = assay: Antibacterial activity against Escherichia coli ATCC 25922 assessed as growth inhibition at 32 ug/ml after 18 hrs by monochromator plate assay relative to control; type: functional; conditions: for inhibition: dose 32.0 µg/ml
Staphylococcus aureus [13] = assay: Antibacterial activity against methicillin-resistant Staphylococcus aureus ATCC 43300 assessed as growth inhibition at 32 ug/ml after 18 hrs by monochromator plate assay relative to control; type: functional
Candida albicans [14] = assay: Antifungal activity against Candida albicans ATCC 90028 assessed as growth inhibition after 36 hrs by monochromator plate assay; type: functional
Cryptococcus neoformans [15] = assay: Antifungal activity against Cryptococcus neoformans var. grubii ATCC 208821) assessed as growth inhibition after 36 hrs by monochromator plate assay relative to control; type: functional
[16] = Cytotoxicity against HEK293 cells assessed as cell viability after 20 hrs by fluorescence assay; type: cell-based; conditions: human
Escherichia coli [17] = assay: Antibacterial activity against Escherichia coli assessed as reduction in bacterial growth by CLSI based broth microdilution method; type: functional; conditions: time 18 hrs
Enterococcus faecalis = assay: Antibacterial activity against vancomycin resistant Enterococcus faecalis assessed as reduction in bacterial growth by CLSI based broth microdilution method; type: functional; conditions: time 18 hrs
Streptococcus pneumoniae = assay: Antibacterial activity against Streptococcus pneumoniae assessed as reduction in bacterial growth by CLSI based broth microdilution method; type: functional; conditions: time 18 hrs
Staphylococcus aureus [18] = assay: Antibacterial activity against methicillin-resistant Staphylococcus aureus assessed as reduction in bacterial growth by CLSI based broth microdilution method; type: functional; conditions: time 18 hrs
[19] = Inhibition of Escherichia coli DNA topoisomerase 4 assessed as reduction in decatenation of kinetoplast DNA measured after 1 hr by agarose gel electrophoresis method

Structure (SMILES) | MIC (Acinetobacter baumannii [2]) | MIC (Pseudomonas aeruginosa [3]) | MIC (Klebsiella pneumoniae [4]) | MIC (Escherichia coli [5]) | MIC (Staphylococcus aureus [6]) [µg/mL] | inhibition (Cryptococcus neoformans [7]) | inhibition at 32 µg/mL (Candida albicans [8]) [%] | inhibition at 32 µg/mL (Acinetobacter baumannii [9]) [%] | inhibition at 32 µg/mL (Pseudomonas aeruginosa [10]) [%] | inhibition at 32 µg/mL (Klebsiella pneumoniae [11]) [%] | inhibition (Escherichia coli [12]) | inhibition at 32 µg/mL (Staphylococcus aureus [13]) [%] | MIC (Candida albicans [14]) | MIC (Cryptococcus neoformans [15]) | inhibition (Acinetobacter baumannii [9]) | other results
CC[C@H](C)[C@H](NC(=O)CN)C(=O)NCC(=O)N[C@@H](C)C(=O)N[C@H](C(=O)N[C@@H](CC(C)C)C(=O)N[C@@H](CCCCN)C(=O)N[C@H](C(=O)N[C@@H](CC(C)C)C(=O)N[C@H](C(=O)N[C@H](C(=O)NCC(=O)N[C@@H](CC(C)C)C(=O)N1CCC[C@H]1C(=O)N[C@@H](C)C(=O)N[C@@H](CC(C)C)C(=O)N[C@H](C(=O)N[C@@H](CO)C(=O)N[C@@H](Cc1c[nH]c2ccccc12)C(=O)N[C@H](C(=O)N[C@@H](CCCCN)C(=O)N[C@@H](CCCNC(=N)N)C(=O)N[C@@H](CCCCN)C(=O)N[C@@H](CCCNC(=N)N)C(=O)N[C@@H](CCC(N)=O)C(=O)N[C@@H](CCC(N)=O)C(N)=O)[C@@H](C)CC)[C@@H](C)CC)[C@@H](C)O)[C@@H](C)O)C(C)C)C(C)C [MELITTIN] |  |  |  |  |  |  |  |  |  |  |  |  |  |  |  | HC50 at 1.167 h [1]: 8.5 µg/mL; HC10 (Blood): 2.7 µg/mL
Cc1nc(-c2ccc(-c3ccccc3)cc2)sc1-c1cc(C(=O)Nc2ccccc2)n[nH]1 | > 32 µg/mL | > 32 µg/mL | > 32 µg/mL | inactive | 4 (≈ 9.16 µM) | inactive | 9.6 | 1.6 | 16.6 | 9.9 | inactive | 85.1 | > 32 µg/mL | inactive |  | CC50 at 20 h [16]: > 32 µg/mL; HC50 at 1.167 h [1]: > 32 µg/mL; HC10 (Blood): > 32 µg/mL
Clc1cccc(-n2nc(C3CCNCC3)cc2/C=C/c2c[nH]c3ccc(Cl)cc23)c1 |  |  |  |  |  |  |  |  |  |  |  |  |  |  |  | MIC (Escherichia coli [17]): 16 µg/mL (≈ 36.6 µM); MIC (Enterococcus faecalis): 2 µg/mL (≈ 4.57 µM); MIC (Streptococcus pneumoniae): 2 µg/mL (≈ 4.57 µM); MIC (Staphylococcus aureus [18]): 2 µg/mL (≈ 4.57 µM)
c1ccc(COc2ccc(-c3cc(C4CCNCC4)[nH]n3)cc2)cc1 |  |  |  |  |  |  |  |  |  |  |  |  |  |  |  | MIC (Enterococcus faecalis): 64 µg/mL (≈ 192 µM); MIC (Staphylococcus aureus [18]): 64 µg/mL (≈ 192 µM); IC50 [19]: 128 µg/mL (≈ 384 µM)
Cc1nc(-c2ccc(-c3ccccc3)cc2)sc1-c1cc(C(=O)Nc2ccc(OC(F)F)cc2)n[nH]1 | inactive | > 32 µg/mL | > 32 µg/mL | inactive | > 32 | inactive | 4.7 |  | 7.1 | 5 | inactive | 3.6 | > 32 µg/mL | inactive | inactive | 
Cc1cccc(-c2ccc(-c3nc(C)c(-c4cc(C(=O)NC5CCCCC5)n[nH]4)s3)cc2)c1C | inactive | > 32 µg/mL | inactive | inactive | 32 (≈ 68 µM) | inactive | 6.1 |  | 7.1 |  | inactive | 7.2 | > 32 µg/mL | inactive | inactive | inhibition (Klebsiella pneumoniae [11]): inactive
CCOC(=O)c1cc(-c2sc(-c3ccc(I)cc3)nc2C)[nH]n1 | > 32 µg/mL | > 32 µg/mL | > 32 µg/mL | inactive | > 32 | inactive | 7.8 | 6.6 | 16.6 | 15.1 | inactive | 16.4 | > 32 µg/mL | inactive |  | 
Cc1nc(-c2ccc(-c3ccccc3)cc2)sc1-c1cc(C(=O)Nc2ccc3c(c2)OCO3)n[nH]1 | inactive | > 32 µg/mL | > 32 µg/mL | inactive | > 32 | inactive | 5 |  | 1.3 | 7.5 | inactive | 3.2 | > 32 µg/mL | inactive | inactive | 
Cc1nc(-c2ccc(-c3ccccc3)cc2)sc1-c1cc(C(=O)NCC2CCCCC2)n[nH]1 | inactive | inactive | inactive | inactive | > 32 | inactive |  |  |  |  | inactive | 4.1 | inactive | inactive | inactive | inhibition (Candida albicans [8]; dose 32.0 µg/ml): inactive; inhibition (Pseudomonas aeruginosa [10]): inactive; inhibition (Klebsiella pneumoniae [11]): inactive
Cc1nc(-c2ccc(I)cc2)sc1-c1cc(C(=O)O)n[nH]1 | > 32 µg/mL | inactive | > 32 µg/mL | > 32 µg/mL | > 32 | inactive | 25.5 | 6.6 |  | 12 |  | 31.8 | > 32 µg/mL | inactive |  | inhibition (Pseudomonas aeruginosa [10]): inactive; inhibition at 32 µg/mL (Escherichia coli [12]): 27.5%
